Experimental data reported in patent US10323013B2, “Inhibitors of the IRE-1/XBP-1 pathway and methods of using thereof” (H. LEE MOFFITT CANCER CENTER AND RESEARCH INSTITUTE, INC., priority 2013, dated 2019).
“Also recorded” adds a separate entry of the source.

Tests used:
Eμ-TCL1 CLL cells = experiment: Cell proliferation XTT assay, Eμ-TCL1 CLL cells; assay type: cell-based, mouse; conditions: 20 μM, 3 days
Description: (§1) Eμ-TCL1, MEC1, MEC2, WaC3, or primary human CLL cells were grown in 96-well cell culture plates overnight and then treated with fresh phenol red-free culture medium containing STF-083010 (50 μM), A-I06 (50 μM), A-I07 (50 μM) or fludarabine (30 μM). […] Briefly, 50 μl XTT labeling reagent was combined with 100 μl electron-coupling reagent, and the mixture was applied to each well of the 96-well plates. The test was based on cleavage of the yellow tetrazolium salt XTT by mitochondrial dehydrogenases of the metabolic active cells to form the orange formazan compound, which can be spectrophotometrically quantified at 492 nm using a BioTek microplate reader.

primary human CLL cells = experiment: Cell proliferation XTT assay, primary human CLL cells; assay type: cell-based; conditions: 20 μM, 3 days
Description: as §1

XBP-1 mRNA splicing = XBP-1 mRNA splicing by RT-PCR; assay type: cell-based; conditions: human WaC3 CLL cells, 24 h
Description: Total RNA was isolated using TRIzol reagent (Invitrogen). Complementary DNA was synthesized from RNA using Superscript II reverse transcriptase (Invitrogen).

CLL-bearing Eμ-TCL1 mice = assay type: in vivo
Description: (B) CLL-bearing Eμ-TCL1 mice were intraperitoneally injected with DMSO (n=3) or B-I09 (50 mg/kg in DMSO, n=8) daily for the first 5 days weekly for three weeks. Blood was collected to measure lymphocyte numbers using a HemaTrue Hematology Analyzer (HESKA). Data were compared with lymphocyte counts prior to B-I09 injections, and plotted as mean±SEM. (C) Lymphocyte counts in the peripheral blood of B-I09-treated Eμ-TCL1 mice (n=8) were plotted as mean±SEM. […] (E) Splenocytes from DMSO- or B-I09-injected Eμ-TCL1 mice were stained with IgM-PE-Cy7, B220-FITC, CD5-APC, Annexin V-PE and 7-AAD. Gated IgM+/B220+/CD5+ splenic CLL cells were analyzed for Annexin V- and/or 7-AAD-positive populations. (F) Percentages of apoptotic cells in gated IgM^+/B220^+/CD5^+ CLL populations from spleens of DMSO-injected (n=3) or B-I09-injected (n=8) Eμ-TCL1 mice were plotted as mean±SEM. (G) Weight of DMSO-injected (n=3) or B-I09-injected (n=8) Eμ-TCL1 mice was plotted as mean±SD. (H) Paraffin-embedded sections of indicated organs from Eμ-TCL1 mice receiving three weeks of injections with DMSO or B-I09 were stained with hematoxylin and eosin.
Tumor-bearing Eμ-TCL1 mice in which CLL cells comprise the majority of the lymphocytes in the peripheral blood (FIG. 33) were selected. The mice were then treated with 50 mg/kg B-I09 on the first five days of each week for three weeks. […] Since CLL cells proliferate in secondary lymphoid organs and are protected from cell death through interactions with microenvironments, whether B-I09 has an effect on CLL cells residing in the spleen was evaluated.

phosphorylation of BTK = experiment: BCR activation and phosphorylation assay; assay type: cell-based; conditions: wild-type and Eμ-TCL1 B cells, B-I09 20 μM, F(ab′)2 anti-mouse IgM
Description: XBP-1^WT/Eμ-TCL1 B cells, XBP-1^KO/Eμ-TCL1 B cells, B-I09-treated wild-type B cells or B-I09-treated Eμ-TCL1 B cells were suspended in RPMI serum-free media supplemented with 25 mM Hepes, stimulated with F(ab′)^2 fragments of the goat anti-mouse IgM antibody (20 μg/ml) (SouthemBiotech) for 2 min, and lysed immediately by adding ice-cold lysis buffer (50 mM Tris-HCl, pH 8.0; 150 mM NaCl; 1% Triton X-100; 1 mM EDTA) supplemented with protease inhibitor cocktail (Roche), 4 mM sodium pyrophosphate, 2 mM sodium vanadate and 10 mM sodium fluoride. The lysates were analyzed by SDS-PAGE. Phosphorylated proteins of interest were detected by immunoblots using phospho-specific antibodies.

[1] = Degradation (chemical stability) studies by HPLC/LCMS; assay type: physicochemical
Description: The degradation of analog 24 was plotted as a function of time upon exposure to FRET-suppression assay buffer at rt. Aliquots were partitioned with MeOH and injected onto LCMS (UV monitored at 320 nm) and peaks integrated relative to internal standard.
A 20 mM stock solution of B-I09 in DMSO was diluted to 0.5 mM in FRET assay buffer (20 mM HEPES, pH 7.5, 50 mM KOAc, 0.5 mM MgCl2, 3 mM DTT, 0.4% PEG) or cell culture media (RPMI supplemented with 10% fetal bovine serum). The FRET assay buffer and cell culture media solutions were incubated at room temperature and 37° C., respectively. At various time points, a 50 μL aliquot of each solution was added to 50 μL of methanol and the mixture analyzed by analytical reverse-phase HPLC (C18 4 mm×150 mm column, 1 mL/min flow rate) with acetonitrile/water (0.1% formic acid) as eluent. Absorbance was read at 320 nm and the degradation product (aldehyde) was identified by LCMS and co-injection with pure synthetic sample. Degradation studies were carried out in duplicate and data points reported as the mean of two values.

[2] = Aqueous solubility (stated in words); assay type: physicochemical
[3] = Pharmacokinetics of B-I09 in mouse plasma; assay type: in vivo; conditions: 50 mg/kg intraperitoneally
Description: In vivo pharmacokinetics studies were carried out at Agilux Laboratories, Inc. (Worchester, Mass.) using male CD-1 mice (Charles River Laboratories, Wilmington, Mass.). B-I09 was administered intraperitoneally at 50 mg/kg as a solution in DMSO to a group of 3 male CD-1 mice. Compound blood was collected via tail snip into calibrated microvette tubes containing K2EDTA at 0.25, 0.5, 1, 2, 4, 8, and 24 h post dosing. Blood samples were stored on wet ice until processed to plasma by centrifugation within 1 hour of collection. All plasma samples were transferred to 96 well plates and stored at −80° C. until analyzed for B-I09 concentration via LC/MS/MS using a C18 RP-HPLC column (2.1×50 mm) and an acetonitrile:water (with 0.1% formic acid) mobile phase elution gradient. B-I09 was quantified by analysis with API 5500 TurbolonSpray positive ion MS detection. A non-compartmental model was applied to calculate pharmacokinetic parameters using WinNonlin 4.2 software.

XBP-1s expression = experiment: Inhibition of XBP-1s expression in LPS-stimulated mouse B cells (immunoblots); assay type: cell-based; conditions: LPS 48 h, then inhibitor 20 μM for 24 h (Example 3 prints 20 mM)
Description: The protein concentrations of the supernatants were determined by BCA assay (Pierce). […] Proteins were transferred to nitrocellulose membranes, blocked in 5% milk (wt/vol in PBS), and immunoblotted with the indicated antibodies and appropriate horseradish peroxidase-conjugated secondary antibodies. Following multiple washes in PBS, the blots were developed using Western Lighting Chemiluminescence Reagent (Perkin-Elmer).
(§2) Protein concentrations were determined by BCA assays (Pierce). […] Proteins were transferred to nitrocellulose membranes, blocked in 5% non-fat milk (wt/vol in PBS), and immunoblotted with indicated primary antibodies and appropriate horseradish peroxidase-conjugated secondary antibodies. Immunoblots were developed using Western Lighting Chemiluminescence Reagent (Perkin-Elmer).

[4] = tested on: XBP-1s expression in Jeko cells; experiment: Inhibition of XBP-1s expression in Jeko cells (immunoblots and densitometry); assay type: cell-based, human; conditions: various doses, 24 h
Description: as §2

[5] = tested on: XBP-1s expression in Mino cells; experiment: Inhibition of XBP-1s expression in Mino cells (immunoblots and densitometry); assay type: cell-based, human; conditions: various doses, 24 h
Description: as §2

Mino and Jeko cells = experiment: PARP cleavage by immunoblot in Mino and Jeko cells; conditions: 50 mM (so in the source), 72 h
Description: Cells were lysed for the analysis of the indicated proteins by immunoblot.
as §2

MEC2 = experiment: cells; conditions: Homo sapiens, MEC2, 48 h, read-out: GI50 (50% growth inhibition) concentration
MEC1 = experiment: cells; conditions: Homo sapiens, MEC1, 48 h, read-out: GI50 (50% growth inhibition) concentration
WaC3 = experiment: cells; conditions: Homo sapiens, 48 h, read-out: GI50 (50% growth inhibition) concentration

## O=c1oc2c(C3OCCCO3)c(O)ccc2c2c1CNCC2 [Compound 28, 7-(1,3-dioxan-2-yl)-8-hydroxy-3,4-dihydro-1H-chromeno[3,4-c]pyridin-5(2H)-one]
Eμ-TCL1 CLL cells
  inhibition of mouse CLL cell growth (in words): more effective than B-H09 and 4μ8C
Primary human CLL cells
  inhibition of growth of CLL cells from human patients (in words): most potent inhibitor
XBP-1 mRNA splicing
  inhibition of splicing of XBP-1 mRNA (in words): highly effective
CLL-bearing Eμ-TCL1 mice; 50 mg/kg for three weeks vs DMSO
  apoptotic CD5+ CLL cells in the spleens (in words): significant increase
CLL-bearing Eμ-TCL1 mice; 50 mg/kg i.p., first five days of each week for three weeks
  CLL in the peripheral blood (in words): Clear CLL regression
CLL-bearing Eμ-TCL1 mice; after three weeks, normal range 500-5000 cells/μL
  numbers of lymphocytes in the peripheral blood (in words): dropped close to the normal range
CLL-bearing Eμ-TCL1 mice; immunoblots, B-I09-injected mice
  expression of XBP-1s in CLL cells from peripheral blood (in words): inhibits the expression of XBP-1s
CLL-bearing Eμ-TCL1 mice; three weeks of treatment
  adverse effects or toxicity to mice (in words): no apparent adverse effects or toxicity
  weight loss and histological changes to vital organs (liver, lungs, kidney, heart): no significant weight loss or apparent histological changes
Phosphorylation of BTK
  BCR signaling, phosphorylation of BTK (in words): reduced phosphorylation of BTK
[1]; 37° C., 24 h
  fraction intact in cell culture media: greater than 50%
[1]; cell culture media, 37° C., read-out: t1/2 in cell culture media (converted)
  half-life at 0.5 mM: ~30 h
[1]; room temperature, up to 48 h, listed as B-I09
  stability of 1,3-dioxane group in FRET-suppression assay buffer (in words): remains completely intact; also recorded: stable
[2]
  solubility (in words): water soluble
[3]
  peak concentration: ~39 µM
  time of peak concentration after administration: 15 min
[3]; male, CD-1, ip
  half-life: ~1.5 h
XBP-1s expression
  inhibition of XBP-1s expression (in words): highly effective

## CC(=O)N1CCc2c(c(=O)oc3c(C=O)c(O)ccc23)C1 [Compound 29, 3-acetyl-8-hydroxy-5-oxo-2,3,4,5-tetrahydro-1H-chromeno[3,4-c]pyridine-7-carbaldehyde]
[4]
  IC50 for blocking XBP-1s expression (in words): sub-micromolar range
[5]
  IC50 for blocking XBP-1s expression (in words): sub-micromolar range

## CN1CCc2c(c(=O)oc3c(C=O)c(O)ccc23)C1 [Compound 30, 8-hydroxy-3-methyl-5-oxo-2,3,4,5-tetrahydro-1H-chromeno[3,4-c]pyridine-7-carbaldehyde]
Mino and Jeko cells
  PARP cleavage (in words): induced PARP cleavage more strongly than either 21b or 5

## C=CC(=O)N1CCC[C@@H](n2nc(-c3ccc(Oc4ccccc4)cc3)c3c(N)ncnc32)C1 [ibrutinib]
MEC2
  GI50: 10 to 20 µM
MEC1
  GI50: 10 to 20 µM
WaC3
  GI50: 10 to 20 µM
